In PMC12004523, “Integrated Virtual Screening Approach Identifies New CYP19A1 Inhibitors” (Journal of Chemical Information and Modeling, 2025):

Tests used:
[1] = target: T1, human CYP19A1 (aromatase) (Homo sapiens, UniProt P11511); test: cell-based; design: Whole-yeast human CYP19A1/CPR testosterone aromatization; estradiol quantified by yeast biosensor fluorescence, flow cytometry, per cent of control; details: Saccharomyces cerevisiae byMM1712; 1 uM inhibitor, testosterone substrate; read-out: % of control remaining
T1 sequence (P11511 1-503): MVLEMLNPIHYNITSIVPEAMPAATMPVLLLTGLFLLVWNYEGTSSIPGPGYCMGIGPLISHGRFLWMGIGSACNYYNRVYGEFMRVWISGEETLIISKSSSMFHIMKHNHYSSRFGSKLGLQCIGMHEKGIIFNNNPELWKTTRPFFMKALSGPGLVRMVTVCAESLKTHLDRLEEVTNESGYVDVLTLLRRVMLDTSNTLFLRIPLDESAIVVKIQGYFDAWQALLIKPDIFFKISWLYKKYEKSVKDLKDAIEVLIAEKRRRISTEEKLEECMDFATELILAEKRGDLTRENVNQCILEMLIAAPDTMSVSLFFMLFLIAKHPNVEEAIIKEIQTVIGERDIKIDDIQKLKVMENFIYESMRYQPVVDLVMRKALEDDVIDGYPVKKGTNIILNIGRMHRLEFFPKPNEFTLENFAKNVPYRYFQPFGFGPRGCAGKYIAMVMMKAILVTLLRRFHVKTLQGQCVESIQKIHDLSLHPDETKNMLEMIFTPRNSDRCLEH
T1 sequence (P16435 2-677 partner): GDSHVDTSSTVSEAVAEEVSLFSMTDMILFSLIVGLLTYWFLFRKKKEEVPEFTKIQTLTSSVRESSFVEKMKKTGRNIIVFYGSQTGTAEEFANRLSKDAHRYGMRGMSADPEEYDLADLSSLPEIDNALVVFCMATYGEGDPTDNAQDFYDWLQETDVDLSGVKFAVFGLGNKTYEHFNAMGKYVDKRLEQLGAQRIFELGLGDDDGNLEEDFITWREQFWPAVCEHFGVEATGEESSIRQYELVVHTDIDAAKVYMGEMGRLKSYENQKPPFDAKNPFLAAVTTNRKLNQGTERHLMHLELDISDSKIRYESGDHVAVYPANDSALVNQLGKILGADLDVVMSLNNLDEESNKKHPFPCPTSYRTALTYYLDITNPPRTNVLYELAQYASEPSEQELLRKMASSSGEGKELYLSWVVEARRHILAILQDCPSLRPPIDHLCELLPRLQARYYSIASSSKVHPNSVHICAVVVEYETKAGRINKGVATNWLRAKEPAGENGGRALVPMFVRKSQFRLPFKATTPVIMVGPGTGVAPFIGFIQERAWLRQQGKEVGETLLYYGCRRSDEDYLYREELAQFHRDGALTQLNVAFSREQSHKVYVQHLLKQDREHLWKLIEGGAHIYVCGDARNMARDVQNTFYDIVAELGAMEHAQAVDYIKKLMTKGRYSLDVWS
Description: Initially, these inhibitors were applied at a final concentration of 10 μM. […] In addition, 9a lacks a Cl atom and 9b lacks a keto group in comparison to 9. […] (a) Illustration of the enzymatic assay based on heterologous expression of human CYP19A1 used for testing candidate CYP19A1 inhibitors. […] Data are presented as mean ± SEM (n = 3).

[2] = target: T1, human CYP19A1 (aromatase); test: aromatase inhibition in yeast expressing human CYP19A1 and CPR, estradiol biosensor (yEGFP, flow cytometry); assay type: cell-based
[3] = target: T1, human CYP19A1 (aromatase); test: cell-based; design: Yeast expressing human CYP19A1/CPR converts testosterone; estradiol in supernatant read by yeast biosensor, flow cytometry; details: for inhibition at 1 µM: read-out: % inhibition (1 μM); for inhibition at 10 µM: read-out: % inhibition (10 μM)
Description: A 14-h precultivation period ensured that the aromatase catalytic capacity remained consistent across all independent experiments and the inhibitor cannot act on P450 expression levels. The initial OD600 was diluted to 0.04, and then the yeast culture’s OD600 was measured and adjusted to 2.00 with fresh SDC medium. One mL of yeast solution (OD600 = 2.00) was poured into the wells of a 48-well deep-well cell culture plate (Axygen P-5 ML-48-C). Subsequently, 1 mL of SDC medium containing 120 nM testosterone and either 10 μM or 1 μM of the inhibitor was added to each well containing the yeast solution. The mixture was incubated at 30 °C and 240 rpm for 2 h. After incubation, 1.5 mL of the mixture from each well was transferred to 2 mL tubes and centrifuged at 16,000 rpm to pellet the yeast cells. Then, 1.2 mL of the supernatant was moved to 1.5 mL tubes and labeled according to the inhibitor concentration. For each sample, 1 mL of the supernatant was transferred to a different well of a 48-well deep-well plate. Next, 980 μL of SDC medium and 20 μL of the precultured byMM1984 biosensor cell solution (OD600 adjusted to 5.00 after 14 h of preculture) were added to each well. Finally, flow cytometry was performed as previously described. The entire assay was repeated in three independent experiments to calculate the mean values. […] Initially, these inhibitors were applied at a final concentration of 10 μM. […] In addition, 9a lacks a Cl atom and 9b lacks a keto group in comparison to 9. […] Several factors were considered to avoid assay artifacts.[46] The biosensor gene circuit used in this study is orthogonal to the yeast chassis,[47] ensuring no interference between the biosensor and the yeast host, thus preventing false positives.

remaining activity at 1 µM [1] [%] | IC50 [2] [nM] | inhibition at 1 µM [3] [%] | inhibition at 10 µM [3] [%] | SMILES
13 ± 2 | 271 ± 51 |  |  | CC(NC(=O)c1cc2cc(Cl)ccc2oc1=O)c1ccc(-n2ccnc2)cc1 (racemic) [compound 9, N-(1-(4-(1H-imidazol-1-yl)phenyl)ethyl)-6-chloro-2-oxo-2H-chromene-3-carboxamide]
50 ± 1 | 1040 ± 63 | 51.9 | 87.4 | O=C(NCc1ccc(-n2ccnc2)cc1)c1cc2ccccc2oc1=O [9a]
58 ± 1 | 1250 ± 190 | 43.8 | 85 | O=C(NCc1ccc(-n2ccnc2)cc1)C1=Cc2cc(Cl)ccc2OC1 [9b]
 |  |  | 25.9 | O=C(Nc1cccc(-c2cn3cccnc3n2)c1)c1ccc(Cl)cc1Cl [compound 1]
 |  |  | 30.9 | CSc1ccc2nc(N3CC(Cn4ccnc4)C3)sc2c1 [compound 2]
 |  |  | 22.8 | O=C(Cc1c(F)cccc1Cl)N1CCC(Cn2ccnc2)CC1 [compound 4]
 |  |  | 25.6 | COc1ccc(-c2cn3cccnc3n2)cc1NC(=O)Nc1ccc(F)cc1 [compound 7]
 | 1130 ± 158 |  |  | CC1(c2ccc(Cl)cc2Cl)OCC(Cn2cncn2)O1 (stereo not shown) [compound 8, 8]
57 ± 7 |  | 44.3 | 81.7 | CC1(c2ccc(Cl)cc2Cl)OCC(Cn2cncn2)O1 (stereo not shown) [compound 8]
 |  | 89.7 | 96.7 | CC(NC(=O)c1cc2cc(Cl)ccc2oc1=O)c1ccc(-n2ccnc2)cc1 (stereo not shown) [compound 9]
 |  |  | 38.1 | O=c1cc(Cn2ccnc2)c2cc(O)c(-c3ccccc3)cc2o1 [compound 10]
 |  |  | 80.4 | N#Cc1ccc(C(c2ccc(C#N)cc2)n2cncn2)cc1 [letrozole]
